# Laboratory results from paper PMC9150124, “Design of a Potent, Selective, and Brain-Penetrant Inhibitor of Wnt-Deactivating Enzyme Notum by Optimization of a Crystallographic Fragment Hit” (Journal of Medicinal Chemistry, 2022).
# Columns and labels:
# Test in all cases: SelectScreen kinase profiling, SSBK ZLyte SP Technology
# Type in all cases: biochemical
# [1] = molecular target: kinase named in conditions (Homo sapiens, UniProt P00533, L858R); conditions: EGFR (ErbB1) L858R, 10 μM
# Description: (§1) Kinase selectivity screening was performed by Thermo Fisher Scientific (Paisley, U.K.) in their SelectScreen Biochemical Kinase Profiling Service. Assay information and data are presented in the Supporting Information.
# (§2) Kinase selectivity screening was performed by ThermoFisher Scientific (Paisley, U.K.) in their SelectScreenTM
# (§3) Biochemical Kinase Profiling service .
# [2] = molecular target: kinase named in conditions (Homo sapiens, UniProt Q96SB4); conditions: SRPK1, 10 μM
# Description: as §1, §2, §3
# [3] = molecular target: kinase named in conditions (Homo sapiens, UniProt P15735); conditions: PHKG2, 10 μM
# Description: as §1, §2, §3
# [4] = molecular target: kinase named in conditions (Homo sapiens, UniProt P05129); conditions: PRKCG (PKC gamma), 10 μM
# Description: as §1, §2, §3
# [5] = molecular target: kinase named in conditions (Homo sapiens, UniProt P54762); conditions: EPHB1, 10 μM
# Description: as §1, §2, §3
# [6] = molecular target: kinase named in conditions (Homo sapiens, UniProt Q9HCP0); conditions: CSNK1G1 (CK1 gamma 1), 10 μM
# Description: as §1, §2, §3
# [7] = molecular target: kinase named in conditions (Homo sapiens, UniProt P42345); conditions: FRAP1 (mTOR), 10 μM
# Description: as §1, §2, §3
# [8] = molecular target: kinase named in conditions (Homo sapiens, UniProt O14965); conditions: AURKA (Aurora A), 10 μM
# Description: as §1, §2, §3
# [9] = molecular target: kinase named in conditions (Homo sapiens, UniProt Q00537); conditions: CDK17/cyclin Y, 10 μM
# Description: as §1, §2, §3
# [10] = molecular target: kinase named in conditions (Homo sapiens, UniProt P07949, V804L); conditions: RET V804L, 10 μM
# Description: as §1, §2, §3
# [11] = molecular target: kinase named in conditions (Homo sapiens, UniProt O75676); conditions: RPS6KA4 (MSK2), 10 μM
# Description: as §1, §2, §3
# [12] = molecular target: kinase named in conditions (Homo sapiens, UniProt Q16288); conditions: NTRK3 (TRKC), 10 μM
# Description: as §1, §2, §3
# [13] = molecular target: kinase named in conditions (Homo sapiens, UniProt P31751); conditions: AKT2 (PKB beta), 10 μM
# Description: as §1, §2, §3
# [14] = molecular target: kinase named in conditions (Homo sapiens, UniProt Q9UK32); conditions: RPS6KA6 (RSK4), 10 μM
# Chain of kinase named in conditions (Homo sapiens, UniProt Q9UK32) (Q9UK32 whole entry): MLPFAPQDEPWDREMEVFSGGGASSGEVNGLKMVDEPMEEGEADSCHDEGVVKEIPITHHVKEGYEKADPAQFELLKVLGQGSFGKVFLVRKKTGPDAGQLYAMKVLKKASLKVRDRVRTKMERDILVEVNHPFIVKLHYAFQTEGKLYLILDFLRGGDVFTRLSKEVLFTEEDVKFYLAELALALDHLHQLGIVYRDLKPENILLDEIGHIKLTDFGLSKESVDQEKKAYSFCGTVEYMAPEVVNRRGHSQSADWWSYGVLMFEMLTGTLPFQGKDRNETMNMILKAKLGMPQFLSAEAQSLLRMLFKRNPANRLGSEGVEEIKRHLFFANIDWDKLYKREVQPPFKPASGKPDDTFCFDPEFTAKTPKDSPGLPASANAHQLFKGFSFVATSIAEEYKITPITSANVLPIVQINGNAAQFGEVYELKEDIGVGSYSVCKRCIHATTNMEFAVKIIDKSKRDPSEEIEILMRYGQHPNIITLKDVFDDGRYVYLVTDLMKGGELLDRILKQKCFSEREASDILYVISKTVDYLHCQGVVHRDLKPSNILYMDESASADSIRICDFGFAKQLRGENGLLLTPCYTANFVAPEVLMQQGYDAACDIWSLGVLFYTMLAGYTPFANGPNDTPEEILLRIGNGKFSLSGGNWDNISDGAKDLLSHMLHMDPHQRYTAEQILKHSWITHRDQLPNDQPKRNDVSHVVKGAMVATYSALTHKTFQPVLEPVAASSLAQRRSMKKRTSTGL
# Description: as §1, §2, §3
# [15] = molecular target: kinase named in conditions (Homo sapiens, UniProt P29597); conditions: TYK2, 10 μM
# Chain of kinase named in conditions (Homo sapiens, UniProt P29597) (P29597 whole entry): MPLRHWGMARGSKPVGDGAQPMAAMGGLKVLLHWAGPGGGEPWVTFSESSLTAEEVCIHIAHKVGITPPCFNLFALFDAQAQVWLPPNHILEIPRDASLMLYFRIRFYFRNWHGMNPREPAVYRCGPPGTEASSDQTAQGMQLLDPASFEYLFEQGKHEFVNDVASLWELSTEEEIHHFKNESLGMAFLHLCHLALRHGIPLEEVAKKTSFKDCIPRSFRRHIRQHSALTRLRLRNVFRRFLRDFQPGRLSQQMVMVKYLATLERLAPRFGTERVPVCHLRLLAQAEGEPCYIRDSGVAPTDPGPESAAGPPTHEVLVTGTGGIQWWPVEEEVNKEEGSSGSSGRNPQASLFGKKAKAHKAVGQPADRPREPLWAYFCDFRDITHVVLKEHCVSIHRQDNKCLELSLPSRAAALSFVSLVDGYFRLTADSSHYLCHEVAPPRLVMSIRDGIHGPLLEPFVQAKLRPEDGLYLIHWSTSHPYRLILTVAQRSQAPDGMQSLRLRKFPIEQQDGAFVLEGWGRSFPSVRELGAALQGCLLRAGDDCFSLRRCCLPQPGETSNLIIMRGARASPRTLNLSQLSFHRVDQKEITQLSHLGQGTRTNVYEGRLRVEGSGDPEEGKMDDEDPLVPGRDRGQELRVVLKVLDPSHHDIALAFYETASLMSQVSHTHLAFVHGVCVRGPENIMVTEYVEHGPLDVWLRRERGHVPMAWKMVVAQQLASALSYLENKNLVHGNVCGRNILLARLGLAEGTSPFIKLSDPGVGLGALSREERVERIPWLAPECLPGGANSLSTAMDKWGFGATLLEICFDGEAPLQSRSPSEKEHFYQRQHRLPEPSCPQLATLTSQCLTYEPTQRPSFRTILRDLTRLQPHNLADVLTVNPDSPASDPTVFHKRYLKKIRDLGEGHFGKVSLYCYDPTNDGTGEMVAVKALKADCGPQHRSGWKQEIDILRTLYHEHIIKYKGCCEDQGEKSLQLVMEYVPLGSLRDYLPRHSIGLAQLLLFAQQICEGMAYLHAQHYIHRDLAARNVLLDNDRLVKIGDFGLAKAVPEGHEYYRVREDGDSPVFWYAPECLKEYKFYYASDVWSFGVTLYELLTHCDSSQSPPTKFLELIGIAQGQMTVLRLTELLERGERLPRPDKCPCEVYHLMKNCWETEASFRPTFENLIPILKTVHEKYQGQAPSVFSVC
# Description: as §1, §2, §3
# [16] = molecular target: kinase named in conditions (Homo sapiens, UniProt Q04759); conditions: PRKCQ (PKC theta), 10 μM
# Description: as §1, §2, §3
# [17] = molecular target: kinase named in conditions (Homo sapiens, UniProt P17948); conditions: FLT1 (VEGFR1), 10 μM
# Description: as §1, §2, §3
# [18] = molecular target: kinase named in conditions (Homo sapiens, UniProt P24941); conditions: CDK2/cyclin A, 10 μM
# Description: as §1, §2, §3
# [19] = molecular target: kinase named in conditions (Homo sapiens, UniProt P52564); conditions: MAP2K6 (MKK6), 10 μM
# Chain of kinase named in conditions (Homo sapiens, UniProt P52564) (P52564 whole entry): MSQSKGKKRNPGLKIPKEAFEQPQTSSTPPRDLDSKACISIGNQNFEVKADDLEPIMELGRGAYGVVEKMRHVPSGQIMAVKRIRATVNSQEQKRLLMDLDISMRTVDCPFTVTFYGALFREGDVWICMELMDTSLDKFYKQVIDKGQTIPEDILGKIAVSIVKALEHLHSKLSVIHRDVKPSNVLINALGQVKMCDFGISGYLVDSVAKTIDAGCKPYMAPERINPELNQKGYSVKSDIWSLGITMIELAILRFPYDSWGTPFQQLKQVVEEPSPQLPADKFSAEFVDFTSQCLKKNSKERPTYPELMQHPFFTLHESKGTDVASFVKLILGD
# Description: as §1, §2, §3
# [20] = molecular target: kinase named in conditions (Homo sapiens, UniProt Q9UQB9); conditions: AURKC (Aurora C), 10 μM
# Description: as §1, §2, §3
# [21] = molecular target: kinase named in conditions (Homo sapiens, UniProt Q9P0L2); conditions: MARK1 (MARK), 10 μM
# Description: as §1, §2, §3
# [22] = molecular target: kinase named in conditions (Homo sapiens, UniProt P15056); conditions: BRAF, 10 μM
# Chain of kinase named in conditions (Homo sapiens, UniProt P15056) (P15056 whole entry): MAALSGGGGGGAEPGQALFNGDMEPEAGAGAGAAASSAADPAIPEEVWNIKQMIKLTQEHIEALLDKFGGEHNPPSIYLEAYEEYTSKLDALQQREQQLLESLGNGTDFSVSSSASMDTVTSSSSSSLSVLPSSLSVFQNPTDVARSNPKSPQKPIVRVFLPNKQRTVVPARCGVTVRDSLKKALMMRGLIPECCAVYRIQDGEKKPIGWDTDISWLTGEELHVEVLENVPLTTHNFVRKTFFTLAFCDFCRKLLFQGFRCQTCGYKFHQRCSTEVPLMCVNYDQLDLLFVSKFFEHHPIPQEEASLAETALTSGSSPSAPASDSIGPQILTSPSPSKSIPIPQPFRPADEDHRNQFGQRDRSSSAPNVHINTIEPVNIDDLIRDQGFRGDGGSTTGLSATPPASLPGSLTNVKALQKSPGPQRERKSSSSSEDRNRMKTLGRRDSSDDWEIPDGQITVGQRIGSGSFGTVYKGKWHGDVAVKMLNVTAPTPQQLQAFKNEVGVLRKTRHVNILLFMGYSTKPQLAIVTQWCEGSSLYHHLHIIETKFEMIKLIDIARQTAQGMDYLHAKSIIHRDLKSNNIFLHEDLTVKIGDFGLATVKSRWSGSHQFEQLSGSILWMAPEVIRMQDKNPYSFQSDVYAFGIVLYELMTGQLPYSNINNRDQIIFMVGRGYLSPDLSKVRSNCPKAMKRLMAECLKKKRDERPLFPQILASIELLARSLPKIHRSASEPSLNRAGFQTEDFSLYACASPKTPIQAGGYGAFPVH
# Description: as §1, §2, §3
# [23] = molecular target: kinase named in conditions (Homo sapiens, UniProt O00418); conditions: EEF2K, 10 μM
# Description: as §1, §2, §3
# [24] = molecular target: kinase named in conditions (Homo sapiens, UniProt P12931); conditions: SRC, 10 μM
# Description: as §1, §2, §3
# [25] = molecular target: kinase named in conditions (Homo sapiens, UniProt P42681); conditions: TXK, 10 μM
# Description: as §1, §2, §3
# [26] = molecular target: kinase named in conditions (Homo sapiens, UniProt Q9H0K1); conditions: SNF1LK2, 10 μM
# Description: as §1, §2, §3
# [27] = molecular target: kinase named in conditions (Homo sapiens, UniProt P06493); conditions: CDK1/cyclin B, 10 μM
# Description: as §1, §2, §3
# [28] = molecular target: kinase named in conditions (Homo sapiens, UniProt Q05397); conditions: PTK2 (FAK), 10 μM
# Description: as §1, §2, §3
# [29] = molecular target: kinase named in conditions (Homo sapiens, UniProt Q9H4B4); conditions: PLK3, 10 μM
# Description: as §1, §2, §3
# [30] = molecular target: kinase named in conditions (Homo sapiens, UniProt Q9H1R3); conditions: MYLK2 (skMLCK), 10 μM
# Description: as §1, §2, §3
# [31] = molecular target: kinase named in conditions (Homo sapiens, UniProt Q96RG2); conditions: PASK, 10 μM
# Description: as §1, §2, §3
# [32] = molecular target: kinase named in conditions (Homo sapiens, UniProt Q9HBY8); conditions: SGK2, 10 μM
# Chain of kinase named in conditions (Homo sapiens, UniProt Q9HBY8) (Q9HBY8 whole entry): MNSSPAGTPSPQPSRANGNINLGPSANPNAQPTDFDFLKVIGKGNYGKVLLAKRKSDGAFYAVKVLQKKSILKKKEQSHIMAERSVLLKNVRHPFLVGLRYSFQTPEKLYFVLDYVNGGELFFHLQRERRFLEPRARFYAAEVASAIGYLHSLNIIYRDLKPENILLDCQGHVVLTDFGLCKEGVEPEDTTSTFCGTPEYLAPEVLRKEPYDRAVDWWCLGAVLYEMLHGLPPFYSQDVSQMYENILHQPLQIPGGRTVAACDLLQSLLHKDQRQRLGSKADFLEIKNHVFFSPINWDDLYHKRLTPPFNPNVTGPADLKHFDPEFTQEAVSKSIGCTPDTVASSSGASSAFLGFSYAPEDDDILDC
# Description: as §1, §2, §3
# [33] = molecular target: kinase named in conditions (Homo sapiens, UniProt Q16620); conditions: NTRK2 (TRKB), 10 μM
# Chain of kinase named in conditions (Homo sapiens, UniProt Q16620) (Q16620 32-822): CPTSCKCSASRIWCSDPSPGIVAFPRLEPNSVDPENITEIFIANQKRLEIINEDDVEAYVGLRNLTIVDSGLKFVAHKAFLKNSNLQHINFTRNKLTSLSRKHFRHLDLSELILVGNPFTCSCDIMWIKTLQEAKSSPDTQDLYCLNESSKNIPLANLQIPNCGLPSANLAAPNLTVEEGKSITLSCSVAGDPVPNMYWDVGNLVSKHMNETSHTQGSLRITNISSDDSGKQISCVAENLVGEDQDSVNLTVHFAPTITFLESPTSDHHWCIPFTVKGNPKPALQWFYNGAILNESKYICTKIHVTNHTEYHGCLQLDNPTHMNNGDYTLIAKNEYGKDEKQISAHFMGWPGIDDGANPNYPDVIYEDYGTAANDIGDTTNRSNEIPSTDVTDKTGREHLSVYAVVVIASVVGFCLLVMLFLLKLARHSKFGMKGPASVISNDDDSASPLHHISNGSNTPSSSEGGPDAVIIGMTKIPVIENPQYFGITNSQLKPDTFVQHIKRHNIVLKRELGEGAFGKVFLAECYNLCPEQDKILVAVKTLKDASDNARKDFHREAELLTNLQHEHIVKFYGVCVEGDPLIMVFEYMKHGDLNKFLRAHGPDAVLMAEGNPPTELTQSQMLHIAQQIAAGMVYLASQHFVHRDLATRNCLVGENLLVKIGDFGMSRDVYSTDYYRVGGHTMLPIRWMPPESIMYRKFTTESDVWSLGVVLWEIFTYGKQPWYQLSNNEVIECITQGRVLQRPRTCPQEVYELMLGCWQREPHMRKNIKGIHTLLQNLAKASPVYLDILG
# Description: as §1, §2, §3
# [34] = molecular target: kinase named in conditions (Homo sapiens, UniProt P16591); conditions: FER, 10 μM
# Description: as §1, §2, §3
# [35] = molecular target: kinase named in conditions (Homo sapiens, UniProt Q13470); conditions: TNK1, 10 μM
# Description: as §1, §2, §3
smiles,measurement,setting,value
"FC(F)(F)c1c(Cl)ccc(-n2ccnn2)c1Cl [8l, 1-(2,4-Dichloro-3-(trifluoromethyl)phenyl)-1H-1,2,3-triazole]",inhibition at 10 µM,[1],2%
same,inhibition at 10 µM,[2],2%
same,inhibition at 10 µM,[3],8%
same,inhibition at 10 µM,[4],12%
same,inhibition at 10 µM,[5],3%
same,inhibition at 10 µM,[6],4%
same,inhibition at 10 µM,[7],4%
same,inhibition at 10 µM,[8],4%
same,inhibition at 10 µM,[9],1%
same,inhibition at 10 µM,[10],8%
same,inhibition at 10 µM,[11],1%
same,inhibition at 10 µM,[12],17%
same,inhibition at 10 µM,[13],7%
same,inhibition at 10 µM,[14],0%
same,inhibition at 10 µM,[15],7%
same,inhibition at 10 µM,[16],-11%
same,inhibition at 10 µM,[17],8%
same,inhibition at 10 µM,[18],6%
same,inhibition at 10 µM,[19],3%
same,inhibition at 10 µM,[20],19%
same,inhibition at 10 µM,[21],-1%
same,inhibition at 10 µM,[22],9%
same,inhibition at 10 µM,[23],3%
same,inhibition at 10 µM,[24],6%
same,inhibition at 10 µM,[25],4%
same,inhibition at 10 µM,[26],2%
same,inhibition at 10 µM,[27],4%
same,inhibition at 10 µM,[28],4%
same,inhibition at 10 µM,[29],5%
same,inhibition at 10 µM,[30],15%
same,inhibition at 10 µM,[31],-1%
same,inhibition at 10 µM,[32],4%
same,inhibition at 10 µM,[33],5%
same,inhibition at 10 µM,[34],2%
same,inhibition at 10 µM,[35],-3%
